Measurements from patent publication US20250281480A1, “PHARMACEUTICAL DRY POWDER INHALATION FORMULATION” (Bayer Aktiengesellschaft, priority 2021, published 2025).

Legend:
[1] = system: anesthetized PAH minipigs; assay: PAH minipig, intratracheal application of dry powder formulations and of different hydrates (PAP, BP); format: in vivo, Göttingen Minipigs; settings: 375 μg/kg i.t.
Experimental: Healthy Göttingen Minipigs® Ellegaard (Ellegaard, Denmark) of both sexes and having a weight of 2-6 kg were used. The animals were sedated by i.m. administration of about 25 mg/kg ketamine and about 10 mg/kg azaperone. Anaesthesia was initiated by i.v. administration of about 2 mg/kg ketamine and about 0.3 mg/kg midazolam. Maintenance of anaesthesia was by i.v. administration of about 7.5-30 mg/kg/h ketamine and about 1-4 mg/kg/h midazolam (rate of infusion 1-4 ml/kg/h) and about 150 μg/kg/h pancuronium bromide (for example Pancuronium-Actavis). After intubation, the animals were ventilated by the ventilator at a constant respiratory volume (10-12 ml/kg, 35 breaths/min; Avea®, Viasys Healthcare, USA, or Engström Carestation, GE Healthcare, Freiburg, Germany) such that an end-tidal CO2 concentration of about 5% was achieved. Ventilation was performed with room air, enriched with about 40% oxygen (normoxia). For the measurement of the haemodynamic parameters such as pulmonary arterial pressure (PAP), blood pressure (BP) and heart rate (HR), catheters were inserted into the carotid artery to measure the blood pressure, and a Swan-Ganz® catheter was introduced in a flow-directed manner via the jugular vein into the pulmonary artery. The haemodynamic signals were recorded and evaluated by means of pressure transducers (Combitransducer, B. Braun, Melsungen, Germany)/amplifiers and Ponemah® as data acquisition software.
About 0.3-0.75 μg/kg/min of 9,11-didesoxy-9α,11α-epoxymethanoprostaglandine F2α (U-44069; Sigma, cat. no. D0400, or Cayman Chemical Company, cat. no. 16440), dissolved in physiological saline, were infused to achieve an increase of the mean pulmonary arterial pressure to values of over 25 mmHg.
After characterization of the effects of comparative example 11 after nebulization of compound solutions, in a further step the effects of crystalline forms of comparative example 11, e.g. sesquihydrate, e.g. example 6e on PAP and BP after inhaled application of different dry powder lactose formulations (table 52) were studied in anesthetized PAH minipigs.
As reference pure Lactose vehicle was applied in the beginning of each experiment.

cGMP = assay: Phase I, healthy male subjects, inhaled once daily for 7 days: cGMP in blood samples; format: in vivo, human
Experimental: (§1) Healthy White male subjects, aged 18 to 45 years and with a body mass index (BMI) above/equal 18.5 and below/equal 29.9 kg/m2 were treated in a clinical pharmacological phase I study on seven days with inhaled once daily doses of 480 or 1000 or 2000 μg (2 capsules of 1000 μg) (nominal dose) of dry powder formulations of example 2 or Placebo. The subjects inhaled the drug powder from capsules (see under C, e.g. tables 22 and 23) inserted into a handheld inhalation device by one deep inhalative breath. The dry powder formulation of the drug is dispersed into the airstream and fine particles are transported into the deep parts of the lung where it is intended to cause a vasodilation of the blood vessels in PH patients for a substantial reduction of increased blood pressure in the central pulmonary blood vessels in PAH patients or other subtypes of PH. This effect cannot be shown in subjects with healthy lungs. In addition inhaled drug causes a dilation of the bronchial airways and thus also improves disease states of lung diseases in PH patients with pathological bronchoconstriction. This effect was measured via bodyplethysmography as reduction of Specific Airway Resistance in healthy subjects. After the deep inhalative breath the subjects hold breath for 2 seconds, so that the dry powder drug condenses from the airstream onto the surface of the deeper lung areas where it is deposited close to its site of intended pharmacological action. The drug dissolutes over the day and equilibrates the lung via lining fluid.
Drug activity in healthy men was controlled in the healthy subjects by analysing blood samples for cGMP, the immediate product of sGC pharmacological activation prior after the first and after the last drug inhalation of the 7 days treatment in comparison to measurements on the pretreatment day for all doses.

[2] = Phase I, healthy male subjects, 7 days: plasma concentrations over time; format: in vivo, human; settings: after first inhalation, all doses
Experimental: as §1, with “After the deep inhalative breath the subjects hold breath for 2 seconds, so that the dry powder drug condenses from the airstream onto the surface of the deeper lung areas where it is deposited close to its site of intended pharmacological action. The drug dissolutes over the day and equilibrates the lung via lining fluid.” left out

[3] = Storage stability of pseudopolymorphic forms (XRPD); format: physicochemical
[4] = Micronization of monohydrate II and monohydrate I (spiral jet mill): solid form after micronization; format: physicochemical
From the text: Generally no amorphization even partial nor form conversion should happen during the necessary micronization step.
The corresponding batches (examples 8a-8d) were micronized using a 50 mm spiral jet mill and pressurized nitrogen with the following parameters (see table 16b).
The corresponding batches were micronized using a 100 mm spiral jet mill and pressurized nitrogen with the following parameters (see table 16c).

healthy male subjects = assay: Phase I, healthy male subjects, 7 days: bodyplethysmography, total specific airway resistance (sRaw); format: in vivo, human
Experimental: as §1, with “After the deep inhalative breath the subjects hold breath for 2 seconds, so that the dry powder drug condenses from the airstream onto the surface of the deeper lung areas where it is deposited close to its site of intended pharmacological action. The drug dissolutes over the day and equilibrates the lung via lining fluid.” left out

[5] = XRPD
Experimental: There was no sample preparation.
3 g (5S)—{[2-(4-Carboxyphenyl)ethyl][2-(2-{[3-chloro-4′-(trifluoromethyl)biphenyl-4-yl]methoxy}-phenyl)ethyl]amino}-5,6,7,8-tetrahydroquinoline-2-carboxylic acid monohydrate I, (material prepared in analogy to example 3/4) were suspended in 20 mL of methanol. The suspension was stirred at ambient conditions for eight days. The residue was filtered and the resulting solid was dryed at ambient conditions. • water content: 4.8% water • Raman: see table 13, see FIG. 17 • IR: see table 14, see FIG. 24 • XRPD: see table 12, see FIG. 10

O=C(O)c1ccc(CCN(CCc2ccccc2OCc2ccc(-c3ccc(C(F)(F)F)cc3)cc2Cl)[C@H]2CCCc3nc(C(=O)O)ccc32)cc1 [Example 2, (5S)—{[2-(4-Carboxyphenyl)ethyl][2-(2-{[3-chloro-4′-(trifluoromethyl)biphenyl-4-yl]methoxy}phenyl)-ethyl]amino}-5,6,7,8-tetrahydroquinoline-2-carboxylic Acid as Monohydrate II]
efficacy with regard to PAP reduction and systemic BP reduction ([1]; micronized hydrates): comparable efficacy
PAP(mean) ([1]; time 160, per animal): 27.8 mmHg
cGMP over time (means) (cGMP; 480 μg inhaled once daily, 7 D 15 H 00 M): 8.56 ± 2.80 nmol/L
cGMP over time (means) (cGMP; 480 μg inhaled once daily, 8 D 00 H 00 M): 7.20 ± 3.23 nmol/L
cGMP over time (means) (cGMP; 480 μg inhaled once daily, 8 D 12 H 00 M): 6.20 ± 2.00 nmol/L
cGMP over time (means) (cGMP; 480 μg inhaled once daily, 9 D 00 H 00 M): 5.64 ± 2.53 nmol/L
cGMP over time (means) (cGMP; 480 μg inhaled once daily, −0 D 09 H 00 M): 5.60 ± 1.08 nmol/L
cGMP over time (means) (cGMP; 480 μg inhaled once daily, −1 D 02 H 00 M): 5.40 ± 1.41 nmol/L
cGMP over time (means) (cGMP; 1000 μg inhaled once daily, 5 D 00 H 00 M): 8.50 ± 2.13 nmol/L
cGMP over time (means) (cGMP; 1000 μg inhaled once daily, −0 D 20 H 00 M): 4.78 ± 1.37 nmol/L
cGMP over time (means) (cGMP; 1000 μg inhaled once daily, −0 D 22 H 00 M): 5.10 ± 1.46 nmol/L
cGMP over time (means) (cGMP; 2000 μg inhaled once daily, 2 D 00 H 00 M): 6.40 ± 2.09 nmol/L
cGMP over time (means) (cGMP; 2000 μg inhaled once daily, 3 D 00 H 00 M): 10.00 ± 3.51 nmol/L
cGMP over time (means) (cGMP; 2000 μg inhaled once daily, 8 D 00 H 00 M): 16.00 ± 5.77 nmol/L
cGMP over time (means) (cGMP; 2000 μg inhaled once daily, 9 D 12 H 00 M): 9.40 ± 3.10 nmol/L
cGMP over time (means) (cGMP; 2000 μg inhaled once daily, −0 D 18 H 00 M): 4.32 ± 1.33 nmol/L
measurable plasma concentration persisted for [2]: 48 h
Result (solid form after storage) ([3]; example 7a: brown glass snap on closure, 25° C., 60% relative humidity): monohydrate II
Result (solid form after storage) ([3]; example 7b: polyethylene, 25° C., 60% relative humidity): monohydrate I
Result (solid form after storage) ([3]; example 7c: polyethylene, 40° C., 75% relative humidity): monohydrate I
Result (solid form after storage) ([3]; example 7d: brown glass closed with paper filter disc, 40° C., 75% relative humidity): monohydrate I
XRPD after micronization ([4]; example 2 batch): monohydrate II with partial amorphization
solid form after micronization ([4]; example 8a: VA jet mill (diameter 50 mm), 25° C.): transformation from monohydrate II to monohydrate I
solid form after micronization ([4]; example 8b, several conditions, even low stress): partial amorphization
total specific airway resistance (means) (healthy male subjects; 480 μg inhaled once daily, 0 D 06 H 00 M): 0.800 ± 0.187 kPa/sec
total specific airway resistance (means) (healthy male subjects; 2000 μg inhaled once daily, 7 D 06 H 00 M): 0.730 ± 0.151 kPa/sec

O.O.O=C(O)c1ccc(CCN(CCc2ccccc2OCc2ccc(-c3ccc(C(F)(F)F)cc3)cc2Cl)[C@H]2CCCc3nc(C(=O)O)ccc32)cc1 [Example 6f]
solid form after drying [5]: went amorphous
